Experimental data published in US3996359A, “Novel stereoisomeric component A of stereoisomeric mixtures of 2'-unsymmetrical 16,17-methylenedioxy steroid 21-acylates, compositions thereof, and method of treating therewith” (AB Bofors, priority 1972, dated 1976).

System: rats subjected to adrenalectomy (granuloma around implanted cotton wads)
Assay: granulom test (cotton-pellet test) on rats subjected to adrenalectomy: granuloma growth, thymus weight, body weight increase
Type: in vivo, rat (Sprague-Dawley)
Details: for Dose required to obtain 50% inhibition of Granuloma growth: Table 3, adrenalectomized young male Sprague-Dawley rats, topical in implanted cotton wads, day 8; for Dose required to obtain 25% inhibition of Body weight Increase / Dose required to obtain 50% inhibition of Thymus weight / ED25 body weight increase inhibition / ED50 thymus weight inhibition / Therapeutic ratio body weight/granuloma / Therapeutic ratio thymus/granuloma: rat, in vivo; for Dose required to obtain 25% inhibition of Body weight Increase / Dose required to obtain 50% inhibition of Thymus weight: 11520 min
Excerpt: In the following this active stereoisomeric component will always be designated B. As regards the steroids referred to in connection with the present invention the stereoisomeric mixture as well as the individual stereoisomeric components A and B have been investigated with regard to antiinflammatory activity in granulom test on rats subjected to adrenalectomy. The experimental procedure used corresponds largely to that described by G. Engelhardt: Arzneimittel-Forschung, 13, p. 588, 1963. According to this procedure the test substances are applied topically in the implanted cottom wads. It is thereby possible to study the local antiinflammatory effect in granulomas and also systemic effects in the form of retrogression of thymus and inhibition of bodyweight growth.
Young male rats of the Sprague-Dawley strain weighing about 110-130 g were subjected to adrenalectomy under ether narcosis. Two sterilized cottom wads of each about 6 mg were implanted simultaneously subcutaneously on the lateral side of the spinal. After awakening the animals were stored 5 per cage and were supplied with normal food and 1% sodium chloride solution as drinking water. On the eighth test day the animals were sacrificed by ether narcosis. The granuloma formed around the cotton wads were carefully recovered and thymus and body weights were measured. The two granuloma from each animal were dried over night at 80° C and weighed. After subtraction of the initial weight of the cotton wads the weight increase was used as a measure of the granulom growth.
The test substances were used dissolved in ethyl acetate. Under aseptic conditions 0.05 ml of said solutions were injected into each of the cotton wads, whereafter the solvent was allowed to evaporate in the desiccator. Normally 3 concentrations of each test substance with the standard doses 3.3, 30 and 270 γ/animal were investigated. Each test group normally comprised 10 rats. The cotton wads of the control group were injected with only ethyl acetate, but were in other respects treated in the same way. When considering the effects of the test substances the average values of granulom growth, thymus weight and body weight increase day 0-8 were measured in each group in absolute figures and in % of the corresponding figure of the control group. Dose-response curves were drafted and used for estimating the doses giving 50 % reduction of granulom growth and of thymus weight and 25 % decrease of body weight increase.
The following Table 4 discloses the results of the cotton-pellet test hereinbefore described, giving in addition figures for the therapeutic ratios, that is, the ratios of the ED50 for thymus weight inhibition divided by the ED50 for granuloma formation inhibition, and the ED25 for body weight increase inhibition over the ED50 for granuloma formation inhibition. As will be recognized, the higher the number for the therapeutic ratio, the more favorable the therapeutic ratio. […] As will be noted for the table, the therapeutic ratio for thymus over granuloma for the Component A esters is 4.2, 7.1, 4.5, 2.6, 2.2, 1.7, 2.5 and 1.7 times as good as it is for the corresponding Component B ester isomer, whereas the therapeutic ratio for the Component A ester isomer as far as body weight is granuloma 2.7, 3.3, 9.8, 6.4, 2.3, 2.8, 3.3 and 2.8 times as favorable as for the corresponding Component B ester isomer.

`CC1O[C@@H]2C[C@H]3[C@@H]4C[C@H](F)C5=CC(=O)C=C[C@]5(C)[C@@]4(F)[C@@H](O)C[C@]3(C)[C@]2(C(=O)CO)O1` (single isomer, unassigned) [7 B] was tested, and the “Dose required to obtain 50% inhibition of Granuloma growth” value was 10 γ/animal, the “Dose required to obtain 25% inhibition of Body weight Increase” value was 15 γ/animal and the “Dose required to obtain 50% inhibition of Thymus weight” value was 6 γ/animal.
With `CCCC1O[C@@H]2C[C@H]3[C@@H]4C[C@H](F)C5=CC(=O)C=C[C@]5(C)[C@@]4(F)[C@@H](O)C[C@]3(C)[C@]2(C(=O)CO)O1` (single isomer, unassigned) [8 A] the “Dose required to obtain 50% inhibition of Granuloma growth” value was 6 γ/animal, the “Dose required to obtain 25% inhibition of Body weight Increase” value was 50 γ/animal and the “Dose required to obtain 50% inhibition of Thymus weight” value was 13 γ/animal.
`CCCC1O[C@@H]2C[C@H]3[C@@H]4C[C@H](F)C5=CC(=O)C=C[C@]5(C)[C@@]4(F)[C@@H](O)C[C@]3(C)[C@]2(C(=O)CO)O1` (single isomer, unassigned) [8 B] was tested, and the “Dose required to obtain 50% inhibition of Granuloma growth” value was 4 γ/animal, the “Dose required to obtain 25% inhibition of Body weight Increase” value was 50 γ/animal and the “Dose required to obtain 50% inhibition of Thymus weight” value was 10 γ/animal.
With `CCCC1O[C@@H]2C[C@H]3[C@@H]4CCC5=CC(=O)C=C[C@]5(C)[C@H]4[C@@H](O)C[C@]3(C)[C@]2(C(=O)CO)O1` (single isomer, unassigned) [12 A] the “Dose required to obtain 50% inhibition of Granuloma growth” value was 125 γ/animal, the “Dose required to obtain 25% inhibition of Body weight Increase” value was > 270 γ/animal and the “Dose required to obtain 50% inhibition of Thymus weight” value was 125 γ/animal.
With `CCCC1O[C@@H]2C[C@H]3[C@@H]4CCC5=CC(=O)C=C[C@]5(C)[C@H]4[C@@H](O)C[C@]3(C)[C@]2(C(=O)CO)O1` (single isomer, unassigned) [12 B] the “Dose required to obtain 50% inhibition of Granuloma growth” value was 40 γ/animal, the “Dose required to obtain 25% inhibition of Body weight Increase” value was 50 γ/animal and the “Dose required to obtain 50% inhibition of Thymus weight” value was 70 γ/animal.
In the case of `CCCCCC1O[C@@H]2C[C@H]3[C@@H]4CCC5=CC(=O)C=C[C@]5(C)[C@H]4[C@@H](O)C[C@]3(C)[C@]2(C(=O)CO)O1` (single isomer, unassigned) [13 A], the “Dose required to obtain 50% inhibition of Granuloma growth” value is reported as 8 γ/animal, the “Dose required to obtain 25% inhibition of Body weight Increase” value is reported as 100 γ/animal and the “Dose required to obtain 50% inhibition of Thymus weight” value is reported as > 270 γ/animal.
`CCCCCC1O[C@@H]2C[C@H]3[C@@H]4CCC5=CC(=O)C=C[C@]5(C)[C@H]4[C@@H](O)C[C@]3(C)[C@]2(C(=O)CO)O1` (single isomer, unassigned) [13 B] was tested, and the “Dose required to obtain 50% inhibition of Granuloma growth” value was 5 γ/animal, the “Dose required to obtain 25% inhibition of Body weight Increase” value was > 270 γ/animal and the “Dose required to obtain 50% inhibition of Thymus weight” value was 210 γ/animal.
For `CC1O[C@@H]2C[C@H]3[C@@H]4CCC5=CC(=O)C=C[C@]5(C)[C@@]4(F)[C@@H](O)C[C@]3(C)[C@]2(C(=O)COC(=O)c2cccnc2)O1` (single isomer, unassigned) [17 A], the “Dose required to obtain 50% inhibition of Granuloma growth” value was 7 γ/animal, the “Dose required to obtain 25% inhibition of Body weight Increase” value was 20 γ/animal and the “Dose required to obtain 50% inhibition of Thymus weight” value was 45 γ/animal.
In the case of `CC1O[C@@H]2C[C@H]3[C@@H]4CCC5=CC(=O)C=C[C@]5(C)[C@@]4(F)[C@@H](O)C[C@]3(C)[C@]2(C(=O)COC(=O)c2cccnc2)O1` (single isomer, unassigned) [17 B], the “Dose required to obtain 50% inhibition of Granuloma growth” value is reported as 3 γ/animal, the “Dose required to obtain 25% inhibition of Body weight Increase” value is reported as 20 γ/animal and the “Dose required to obtain 50% inhibition of Thymus weight” value is reported as 13 γ/animal.
In the case of `CCCCC(=O)OCC(=O)[C@@]12OC(C)O[C@@H]1C[C@H]1[C@@H]3CCC4=CC(=O)C=C[C@]4(C)[C@@]3(F)[C@@H](O)C[C@@]12C` (single isomer, unassigned) [18 A], the “Dose required to obtain 50% inhibition of Granuloma growth” value is reported as < 3 γ/animal, the ED25 body weight increase inhibition is reported as 33 µg/animal and the ED50 thymus weight inhibition is reported as 70 µg/animal. The “Therapeutic ratio body weight/granuloma” value was greater than 11.0, the Therapeutic ratio thymus/granuloma was greater than 23.3 and the “Dose required to obtain 25% inhibition of Body weight Increase” value was 33 γ/animal. The “Dose required to obtain 50% inhibition of Thymus weight” value was 70 γ/animal.
`CCCCC(=O)OCC(=O)[C@@]12OC(C)O[C@@H]1C[C@H]1[C@@H]3CCC4=CC(=O)C=C[C@]4(C)[C@@]3(F)[C@@H](O)C[C@@]12C` (single isomer, unassigned) [18 B] was tested, and the “Dose required to obtain 50% inhibition of Granuloma growth” value was < 3 γ/animal, the ED25 body weight increase inhibition was 10 µg/animal and the ED50 thymus weight inhibition was 10 µg/animal. The “Therapeutic ratio body weight/granuloma” value was greater than 3.3, the Therapeutic ratio thymus/granuloma was greater than 3.3 and the “Dose required to obtain 25% inhibition of Body weight Increase” value was 10 γ/animal. For the same compound, the “Dose required to obtain 50% inhibition of Thymus weight” value was 10 γ/animal.
`CCCC1O[C@@H]2C[C@H]3[C@@H]4CCC5=CC(=O)C=C[C@]5(C)[C@@]4(F)[C@@H](O)C[C@]3(C)[C@]2(C(=O)COC(=O)c2cc3ccccc3o2)O1` (single isomer, unassigned) [20 A] was tested, and the “Dose required to obtain 50% inhibition of Granuloma growth” value was < 3 γ/animal, the ED25 body weight increase inhibition was 50 µg/animal and the ED50 thymus weight inhibition was 90 µg/animal. For the same compound, the “Therapeutic ratio body weight/granuloma” value was greater than 16.7, the Therapeutic ratio thymus/granuloma was greater than 30.0 and the “Dose required to obtain 25% inhibition of Body weight Increase” value was 50 γ/animal. For the same compound, the “Dose required to obtain 50% inhibition of Thymus weight” value was 90 γ/animal.
In the case of `CCCC1O[C@@H]2C[C@H]3[C@@H]4CCC5=CC(=O)C=C[C@]5(C)[C@@]4(F)[C@@H](O)C[C@]3(C)[C@]2(C(=O)COC(=O)c2cc3ccccc3o2)O1` (single isomer, unassigned) [20 B], the “Dose required to obtain 50% inhibition of Granuloma growth” value is reported as < 3 γ/animal, the ED25 body weight increase inhibition is reported as 5 µg/animal and the ED50 thymus weight inhibition is reported as 20 µg/animal. The “Therapeutic ratio body weight/granuloma” value was greater than 1.7, the Therapeutic ratio thymus/granuloma was greater than 6.7 and the “Dose required to obtain 25% inhibition of Body weight Increase” value was 5 γ/animal. For the same compound, the “Dose required to obtain 50% inhibition of Thymus weight” value was 20 γ/animal.
For `CCCC1O[C@@H]2C[C@H]3[C@@H]4CCC5=CC(=O)C=C[C@]5(C)[C@@]4(F)[C@@H](O)C[C@]3(C)[C@]2(C(=O)COC(=O)c2cccnc2)O1` (single isomer, unassigned) [21 A], the “Dose required to obtain 50% inhibition of Granuloma growth” value was < 3 γ/animal, the “Dose required to obtain 25% inhibition of Body weight Increase” value was 70 γ/animal and the “Dose required to obtain 50% inhibition of Thymus weight” value was 70 γ/animal.
For `CCCC1O[C@@H]2C[C@H]3[C@@H]4CCC5=CC(=O)C=C[C@]5(C)[C@@]4(F)[C@@H](O)C[C@]3(C)[C@]2(C(=O)COC(=O)c2cccnc2)O1` (single isomer, unassigned) [21 B], the “Dose required to obtain 50% inhibition of Granuloma growth” value was < 3 γ/animal, the “Dose required to obtain 25% inhibition of Body weight Increase” value was 5 γ/animal and the “Dose required to obtain 50% inhibition of Thymus weight” value was 10 γ/animal.
With `CCCCC(=O)OCC(=O)[C@@]12OC(CCC)O[C@@H]1C[C@H]1[C@@H]3CCC4=CC(=O)C=C[C@]4(C)[C@@]3(F)[C@@H](O)C[C@@]12C` (single isomer, unassigned) [22 A] the “Dose required to obtain 50% inhibition of Granuloma growth” value was < 3 γ/animal, the ED25 body weight increase inhibition was 33 µg/animal and the ED50 thymus weight inhibition was 90 µg/animal. The “Therapeutic ratio body weight/granuloma” value was greater than 11.0, the Therapeutic ratio thymus/granuloma was greater than 30.0 and the “Dose required to obtain 25% inhibition of Body weight Increase” value was 33 γ/animal. For the same compound, the “Dose required to obtain 50% inhibition of Thymus weight” value was 90 γ/animal.
`CCCCC(=O)OCC(=O)[C@@]12OC(CCC)O[C@@H]1C[C@H]1[C@@H]3CCC4=CC(=O)C=C[C@]4(C)[C@@]3(F)[C@@H](O)C[C@@]12C` (single isomer, unassigned) [22 B] was tested, and the “Dose required to obtain 50% inhibition of Granuloma growth” value was < 3 γ/animal, the ED25 body weight increase inhibition was 3 µg/animal and the ED50 thymus weight inhibition was 35 µg/animal. For the same compound, the “Therapeutic ratio body weight/granuloma” value was greater than 1.7, the Therapeutic ratio thymus/granuloma was greater than 11.7 and the “Dose required to obtain 25% inhibition of Body weight Increase” value was 5 γ/animal. For the same compound, the “Dose required to obtain 50% inhibition of Thymus weight” value was 35 γ/animal.
`CCCC1O[C@@H]2C[C@H]3[C@@H]4C[C@H](F)C5=CC(=O)C=C[C@]5(C)[C@@]4(F)[C@@H](O)C[C@]3(C)[C@]2(C(=O)COC(=O)c2cc3ccccc3o2)O1` (single isomer, unassigned) [25 A] was tested, and the “Dose required to obtain 50% inhibition of Granuloma growth” value was < 3 γ/animal, the ED25 body weight increase inhibition was 20 µg/animal and the ED50 thymus weight inhibition was 15 µg/animal. The “Therapeutic ratio body weight/granuloma” value was greater than 6.7, the Therapeutic ratio thymus/granuloma was greater than 5.0 and the “Dose required to obtain 25% inhibition of Body weight Increase” value was 20 γ/animal. For the same compound, the “Dose required to obtain 50% inhibition of Thymus weight” value was 15 γ/animal.
In the case of `CCCC1O[C@@H]2C[C@H]3[C@@H]4C[C@H](F)C5=CC(=O)C=C[C@]5(C)[C@@]4(F)[C@@H](O)C[C@]3(C)[C@]2(C(=O)COC(=O)c2cc3ccccc3o2)O1` (single isomer, unassigned) [25 B], the “Dose required to obtain 50% inhibition of Granuloma growth” value is reported as < 3 γ/animal, the ED25 body weight increase inhibition is reported as 20 µg/animal and the ED50 thymus weight inhibition is reported as 7 µg/animal. For the same compound, the “Therapeutic ratio body weight/granuloma” value was greater than 2.9, the Therapeutic ratio thymus/granuloma was greater than 2.3 and the “Dose required to obtain 25% inhibition of Body weight Increase” value was 20 γ/animal. For the same compound, the “Dose required to obtain 50% inhibition of Thymus weight” value was 7 γ/animal.
